The target of one test is T1, human pancreatic lipase (Homo sapiens, UniProt P16233).
T1 construct: PL from the human pancreas (triacylglycerol acyl hydrolase, EC 3.1.1.3); from tissue; host or cells: human pancreas
T1 sequence (P16233 17-465): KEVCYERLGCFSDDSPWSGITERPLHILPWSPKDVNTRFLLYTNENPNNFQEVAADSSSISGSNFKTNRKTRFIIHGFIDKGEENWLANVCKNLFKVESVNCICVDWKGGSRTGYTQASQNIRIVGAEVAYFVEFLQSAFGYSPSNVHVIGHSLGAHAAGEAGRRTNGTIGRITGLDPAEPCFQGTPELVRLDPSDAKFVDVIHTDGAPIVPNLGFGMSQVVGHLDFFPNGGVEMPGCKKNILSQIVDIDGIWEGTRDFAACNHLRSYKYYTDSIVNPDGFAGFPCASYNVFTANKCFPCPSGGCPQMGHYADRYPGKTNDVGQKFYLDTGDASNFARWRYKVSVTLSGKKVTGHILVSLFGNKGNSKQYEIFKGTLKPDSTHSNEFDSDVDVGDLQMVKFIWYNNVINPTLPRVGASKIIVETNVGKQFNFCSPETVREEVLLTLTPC
Put plainly: In vitro assay using human pancreatic lipase (4-MUO hydrolysis, fluorometric).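 For all read-outs here: Read-out is the initial rate of fluorescent 4-MU release as HPL cleaves the 4-MUO substrate, a rate that scales with the amount of enzyme.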 The class given is biochemical. Conditions: for IC50: human PL 2 U/mL, 4-MUO 0.05 mM, mean ± SEM; for inhibitory activity against HPL (in words): at the maximum concentration that could be tested.

The target in test [1] is T2, porcine pancreatic lipase (Sus scrofa, UniProt P00591).
T2 sequence (P00591 1-450): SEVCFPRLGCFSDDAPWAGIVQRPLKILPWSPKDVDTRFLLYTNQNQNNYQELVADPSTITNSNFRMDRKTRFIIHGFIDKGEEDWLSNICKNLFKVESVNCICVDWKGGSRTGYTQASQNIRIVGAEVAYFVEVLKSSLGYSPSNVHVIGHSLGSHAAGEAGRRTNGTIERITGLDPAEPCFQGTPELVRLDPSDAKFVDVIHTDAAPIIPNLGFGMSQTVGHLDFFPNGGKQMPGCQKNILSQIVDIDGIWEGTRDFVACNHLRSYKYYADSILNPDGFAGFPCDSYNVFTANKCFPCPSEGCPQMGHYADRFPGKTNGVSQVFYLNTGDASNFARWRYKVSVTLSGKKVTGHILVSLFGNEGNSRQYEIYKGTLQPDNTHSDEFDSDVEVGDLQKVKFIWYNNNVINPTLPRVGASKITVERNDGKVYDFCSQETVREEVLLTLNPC
Description: In vitro assay using porcine pancreatic lipase (4-MUO hydrolysis, fluorometric).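 For all read-outs here: product 4-methylumbeliferone formation tracked fluorometrically, catalytic rate from RFU slope over the 10–30 min window, compounds checked beforehand for own fluorescence, at least three independent experiments.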 The note with it: for inhibitory activity against PPL (in words): at the maximum concentration that could be tested.

[2] abbreviates: read-out: PL Inhibition (%) ± SEM, Human.
The mark [3] stands for this setting: read-out: PL Inhibition (%) ± SEM, Porcine.
The mark [4] stands for this setting: at 50 μM, read-out: PL Inhibition (%) ± SEM, Human.
Setting [5] is: read-out: PL Inhibition (%) ± SEM, Human, at 50 μM.

Where two headings read alike, the source gives them in different places.

Broadly, the inhibition is the relative decrease from the control value, in per cent. On to `O=c1cc(-c2ccccc2)oc2ccccc12` [Flavonoid 1, Flavone], for which the inhibition at 100 µM (at human pancreatic lipase (setting [2]); in test [1] (setting [3])) was below 30% throughout.

The IC50 is the concentration needed to halve the response being measured. Regarding `CCCCc1c(-c2ccc(O)c(O)c2)oc2cc(O)cc(O)c2c1=O` [Flavonoid 28], the IC50 on human pancreatic lipase worked out at 42 ± 2 µM; in test [1], 13 ± 1 µM.

For `O=c1c(O)c(-c2ccccc2)oc2cc(O)cc(O)c12` [Flavonoid 23, Galangin], the inhibition at 50 µM was below 30% at human pancreatic lipase (setting [4]) and 41 ± 1% in test [1] (setting [3]).

As for `CCCCCCc1c(-c2ccc(O)c(O)c2)oc2cc(O)cc(O)c2c1=O` [Flavonoid 29], the IC50 was found to be 16.4 ± 0.7 µM against human pancreatic lipase and 10.1 ± 0.4 µM in test [1].

With `O=c1cc(-c2ccccc2)oc2cccc(O)c12` [Flavonoid 5], the inhibition at 50 µM (on human pancreatic lipase (setting [4]); in test [1] (setting [3])) was below 30% each time.

As to `C[C@@H]1O[C@@H](OC[C@H]2O[C@@H](Oc3c(-c4ccc(O)c(O)c4)oc4cc(O)cc(O)c4c3=O)[C@H](O)[C@@H](O)[C@@H]2O)[C@H](O)[C@H](O)[C@H]1O` [Flavonoid 32, Rutin], the inhibition at 50 µM at human pancreatic lipase (setting [4]) is 34 ± 1%; in test [1] (setting [3]), below 30%. Besides, the “inhibitory activity against HPL (in words)” value at human pancreatic lipase was “did not show significant inhibitory activity”. Moreover, the “inhibitory activity against PPL (in words)” value in test [1] is given as “did not show significant inhibitory activity”.

On to `O=c1c(-c2ccc(O)cc2)coc2cc(O)cc(O)c12` [Flavonoid 17, Genistein], for which the inhibition at 100 µM (on human pancreatic lipase (setting [2]); in test [1] (setting [3])) was below 30% each time. Also, on human pancreatic lipase, the “inhibitory activity against HPL (in words)” value was “did not show significant inhibitory activity”. Further, in test [1], the “inhibitory activity against PPL (in words)” value was “did not show significant inhibitory activity”.

`O=c1c(O)c(-c2ccc(O)cc2)oc2c(O)c(O)ccc12` [Flavonoid 44]: the inhibition at 50 µM on human pancreatic lipase (setting [4]) was below 30%; in test [1] (setting [3]), 42 ± 2%.

As for `O=c1c(O)c(-c2ccc(O)c(O)c2)oc2c(O)c(O)ccc12` [Flavonoid 45, Melanoxetin], the inhibition at 25 µM (at human pancreatic lipase (setting [2]); in test [1] (setting [3])) was below 30% each time.

`O=c1c(O)c(-c2ccc(O)c(O)c2)oc2c(O[C@@H]3O[C@H](CO)[C@@H](O)[C@H](O)[C@H]3O)c(O)cc(O)c12` [Flavonoid 48, Gossypin]: the inhibition at 12.5 µM at human pancreatic lipase (at 12.5 μM, read-out: PL Inhibition (%) ± SEM, Human) is below 30%; in test [1] (setting [3]) it was below 30%. Also, the “inhibitory activity against HPL (in words)” value at human pancreatic lipase was “did not show significant inhibitory activity”. Besides, the “inhibitory activity against PPL (in words)” value in test [1] is “did not show significant inhibitory activity”.

As to `O=c1cc(-c2cc(O)c(O)c(O)c2)oc2cccc(O)c12` [Flavonoid 36], the values for the concentration for half-maximal inhibition (IC50) (against human pancreatic lipase; in test [1]) were 7 ± 1 µM and 20 ± 3 µM, respectively.

For the compound `O=c1c(O)c(-c2ccc(O)c(O)c2)oc2c(O)c(O)cc(O)c12` [Flavonoid 47, Gossypetin], the values for the inhibition at 50 µM (at human pancreatic lipase (setting [5]); in test [1] (setting [3])) were 37 ± 1% and 36 ± 3%, respectively.

Consider `O=c1cc(-c2ccc(O)cc2)oc2cccc(O)c12` [Flavonoid 7], for which the inhibition at 25 µM (at human pancreatic lipase (setting [2]); in test [1] (setting [3])) was below 30% each time.

As to `O=c1c(O)c(-c2ccc(O)cc2)oc2c(O)c(O)cc(O)c12` [Flavonoid 46, Herbacetin], the results for the inhibition at 50 µM (at human pancreatic lipase (setting [4]); in test [1] (setting [3])) were 39 ± 3% and 46 ± 4%, respectively.

Turning to `O=c1cc(-c2ccc(O)c(O)c2)oc2cc(O)cc(O)c12` [Flavonoid 16, Luteolin], the inhibition at 50 µM at human pancreatic lipase (setting [4]) was 54 ± 2%. This compound had an IC50 in test [1] of 32 ± 2 µM.

As for `O=c1c(OC2OC(CO)C(O)C(O)C2O)c(-c2ccc(OC3OC(CO)C(O)C(O)C3O)c(O)c2)oc2cc(O)cc(O)c12` (centres unmarked) [Flavonoid 35], on human pancreatic lipase, the “inhibitory activity against HPL (in words)” value is “did not show significant inhibitory activity”. The inhibition at 50 µM (at human pancreatic lipase (setting [5]); in test [1] (setting [3])) was below 30% each time. Moreover, the “inhibitory activity against PPL (in words)” value in test [1] is listed as “did not show significant inhibitory activity”.

As for `O=c1cc(-c2ccc(O)c(O)c2)oc2cccc(O)c12` [Flavonoid 8], the figures for the inhibition at 50 µM (at human pancreatic lipase (setting [2]); in test [1] (setting [3])) were below 30% and 46 ± 2%, respectively.

For the compound `O=c1cc(-c2ccc(O)cc2)oc2ccccc12` [Flavonoid 3], the inhibition at 25 µM (on human pancreatic lipase (setting [2]); in test [1] (setting [3])) was below 30% each time.

Source of the values: paper PMC11859905, “Flavonoids as Potential Modulators of Pancreatic Lipase Catalytic Activity” (Pharmaceutics, 2025).
